Patent US20140066362A1, “METHOD FOR TREATING INFECTIONS BY TARGETING MICROBIAL H2S-PRODUCING ENZYMES” (NEW YORK UNIVERSITY, priority 2011, published 2014)

Assays:
Format in all cases: cell-based
E. faecium A2373 = assay: MIC of antibiotics with or without PAG/AOAA; details: for MIC: Enterococcus faecium, A2373, read-out: Minimum inhibitory concentration
Procedure: (§1) E. faecalis (ATCC 29212) cultures were prepared at initial inoculums of ˜5×10^5 CFU/ml in Mueller-Hinton II Broth (cation-adjusted). Aliquots of 190 μl were dispensed to each well of a fresh set of plates, and 10 μl of an antibiotic solution (levofloxacin, meropenem, gentamicin, piperacillin, linezolid, cefepime, daptomycin, vancomycin, or chloramphemicol) were transferred to the corresponding wells in each bacterial plate (FIG. 13). For each antibiotic, the starting concentration was 2×MIC (minimum inhibitory concentration) with serial ½ dilutions. Two sets of dilutions were prepared, and to one of them 0.1 mM AOAA was added. The resulting plates were kept at 37° C. and 85% humidity for 20 hours. All nine antibiotics tested were potentiated by AOAA, with respective MICs dropped from 8-fold to 32-fold (FIG. 13).
(§2) Minimum inhibitory concentration (MIC) determination was conducted as described in Example 7, above. To assess antibiotic potentiation by AOAA and PAG, MIC was determined for nine antibiotics (levofloxacin, meropenem, gentamicin, piperacillin, linezolid, cefepime, daptomycin, vancomycin, and chloramphemicol) and four bacterial strains (E. faecium (A2373), E. faecalis ([…]), S. pneumoniae (ATCC 49619), and P. aeruginosa (PAO1)) in the presence of antibiotic alone, 1 mM PAG, 0.1 mM AOAA, or 0.5 mM PAG+0.05 mM AOAA. The smaller the MIC value, the stronger the effect of antibiotic potentiation.

[1] = tested on: E. coli ΔsseA (3MST-deficient) strain; details: Table 1; relative values of growth inhibition (negative numbers), ΔsseA vs wt E. coli
E. faecalis ATCC29212 = assay: MIC of antibiotics with or without PAG/AOAA; details: for MIC: Enterococcus faecalis, ATCC29212, read-out: Minimum inhibitory concentration
Procedure: Bacterial cultures were prepared at initial inoculums of ˜5×10^5 CFU/ml, and aliquots of 190 μl per well were dispensed. Ten μl of the indicated antibiotic solutions were added to each well. The starting concentration for each antibiotic solution was 2×MIC, with serial ½ dilutions. Two sets of dilutions were prepared, and 0.1 mM AOAA was added to one set. The plates were kept at 37° C. and 85% humidity for 20 hours.
as §1, §2

P. aeruginosa PAO1 = assay: MIC of antibiotics with or without PAG/AOAA; details: for MIC: Pseudomonas aeruginosa, PAO1, read-out: Minimum inhibitory concentration
Procedure: as §2

S. pneumoniae ATCC49619 = assay: MIC of antibiotics with or without PAG/AOAA; details: for MIC: Streptococcus pneumoniae, ATCC49619, read-out: Minimum inhibitory concentration
Procedure: as §2

[2] = in the presence of 0.5 mM PAG + 0.05 mM AOAA

Compound | MIC (E. faecium A2373; antibiotic alone) [µg/mL] | Minimum inhibitory concentration (E. faecium A2373; in the presence of 0.1 mM AOAA) | Minimum inhibitory concentration (E. faecium A2373; [2]) [µg/mL] | Minimum inhibitory concentration (E. faecium A2373; in the presence of 1 mM PAG) [µg/mL] | MIC (E. faecalis ATCC29212; antibiotic alone) [µg/mL] | Minimum inhibitory concentration (E. faecalis ATCC29212; in the presence of 0.1 mM AOAA) | Minimum inhibitory concentration (E. faecalis ATCC29212; [2]) [µg/mL] | Minimum inhibitory concentration (E. faecalis ATCC29212; in the presence of 1 mM PAG) [µg/mL] | MIC (P. aeruginosa PAO1; antibiotic alone) [µg/mL] | Minimum inhibitory concentration (P. aeruginosa PAO1; in the presence of 0.1 mM AOAA) [µg/mL] | Minimum inhibitory concentration (P. aeruginosa PAO1; [2]) [µg/mL] | Minimum inhibitory concentration (P. aeruginosa PAO1; in the presence of 1 mM PAG) [µg/mL] | MIC (S. pneumoniae ATCC49619; antibiotic alone) [µg/mL] | Minimum inhibitory concentration (S. pneumoniae ATCC49619; in the presence of 0.1 mM AOAA) [µg/mL] | Minimum inhibitory concentration (S. pneumoniae ATCC49619; [2]) [µg/mL] | Minimum inhibitory concentration (S. pneumoniae ATCC49619; in the presence of 1 mM PAG) [µg/mL] | Minimum inhibitory concentration (E. faecium A2373; antibiotic alone) [µg/mL] | Minimum inhibitory concentration (E. faecalis ATCC29212; antibiotic alone) [µg/mL] | Minimum inhibitory concentration (P. aeruginosa PAO1; antibiotic alone) [µg/mL] | Minimum inhibitory concentration (S. pneumoniae ATCC49619; antibiotic alone) [µg/mL] | other results
O=C(N[C@H](CO)[C@H](O)c1ccc([N+](=O)[O-])cc1)C(Cl)Cl [Chloramphenicol] | 8 | 2 µg/mL | 8 | 8 | 8 | 0.5 µg/mL | 8 | 8 | 64 | 64 | 64 | 64 | 8 | 4 | 4 | 4 | – | – | – | – | ΔsseA inhibition of growth [1]: −136
CCCCCCCCCC(=O)N[C@@H](Cc1c[nH]c2ccccc12)C(=O)N[C@H](CC(N)=O)C(=O)N[C@@H](CC(=O)O)C(=O)N[C@@H]1C(=O)NCC(=O)N[C@@H](CCCN)C(=O)N[C@@H](CC(=O)O)C(=O)N[C@H](C)C(=O)N[C@@H](CC(=O)O)C(=O)NCC(=O)N[C@H](CO)C(=O)N[C@@H]([C@H](C)CC(=O)O)C(=O)N[C@@H](CC(=O)c2ccccc2N)C(=O)O[C@@H]1C [Daptomycin, daptomycin] | 4 | ≦1 μg/ml | 4 | 2 | 2 | ≦0.06 μg/ml | 1 | 2 | > 64 | >64 | >64 | >64 | 0.125 | 0.063 | 0.125 | 0.125 | – | – | – | – | –
C[C@H]1COc2c(N3CCN(C)CC3)c(F)cc3c(=O)c(C(=O)O)cn1c23 [Levoflaxacin, levofloxacin] | 2 | 2 µg/mL | 2 | 2 | 1 | 0.125 µg/mL | 0.5 | 1 | 0.5 | 0.5 | 0.5 | 0.5 | 2 | 0.5 | 0.5 | 1 | – | – | – | – | –
CC(=O)NC[C@H]1CN(c2ccc(N3CCOCC3)c(F)c2)C(=O)O1 [Linezold, linezolid] | 4 | 2 µg/mL | 4 | 4 | 4 | 0.25 µg/mL | 2 | 4 | > 64 | >64 | >64 | >64 | 2 | 0.5 | 1 | 2 | – | – | – | – | –
C[C@@H](O)[C@H]1C(=O)N2C(C(=O)O)=C(S[C@@H]3CN[C@H](C(=O)N(C)C)C3)[C@H](C)[C@H]12 [Meropenom, meropenem] | – | 6 µg/mL | >64 | >64 | – | 0.25 µg/mL | 1 | 4 | – | 0.5 | 0.5 | 0.5 | – | 0.063 | 0.063 | 0.063 | >64 | 4 | 1 | 0.125 | –
CCN1CCN(C(=O)N[C@@H](C(=O)N[C@@H]2C(=O)N3[C@@H]2SC(C)(C)[C@@H]3C(=O)O)c2ccccc2)C(=O)C1=O [Piperacilin, piperacillin] | – | 6 µg/mL | >64 | >64 | – | 0.25 µg/mL | 1 | 2 | – | 4 | 4 | 4 | – | 0.25 | 0.5 | 0.5 | >64 | 2 | 4 | 0.5 | –
gentamicin | – | >64 µg/mL | >64 | >64 | – | 1 µg/mL | 4 | 32 | – | 2 | 4 | 2 | – | 8 | 16 | 32 | >64 | 32 | 2 | 32 | –
